From US9963462B2 (priority 2015, dated 2018)

Molecular target: SNAP-hSPR (sepiapterin reductase, SPR) (Homo sapiens, UniProt P35270)
Assay: biochemical
Format: binding
Settings: terbium labelled SNAP-hSPR / SSZ labelled SNAP-EGFP; read-out: hTR-FRET IC50

SNAP-hSPR (sepiapterin reductase, SPR), sequence (P35270 whole entry): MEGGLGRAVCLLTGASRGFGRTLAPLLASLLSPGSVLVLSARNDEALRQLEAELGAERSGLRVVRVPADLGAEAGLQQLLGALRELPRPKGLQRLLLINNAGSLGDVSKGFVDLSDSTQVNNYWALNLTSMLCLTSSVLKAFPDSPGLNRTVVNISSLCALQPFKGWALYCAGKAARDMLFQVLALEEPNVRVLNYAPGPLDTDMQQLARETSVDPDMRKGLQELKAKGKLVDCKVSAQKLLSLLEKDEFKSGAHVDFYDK

Row | SMILES | IC50
1 | Cc1cc(=O)[nH]c(-c2cnn(CCC(=O)N3CCc4ccccc4C3)c2)n1 (single isomer, unassigned) [Q-0291, 6-methyl-2-{1-[3-oxo-3-(1,2,3,4-tetrahydroisoquinolin-2-yl)propyl]-1H-pyrazol-4-yl}-3,4-dihydropyrimidin-4-one] | 2700 nM
2 | Cc1cc(-c2cnn(CCC(=O)N3CCc4ccccc4C3)c2)[nH]c(=O)n1 (single isomer, unassigned) [Q-0292, 4-methyl-6-{1-[3-oxo-3-(1,2,3,4-tetrahydroisoquinolin-2-yl)propyl]-1H-pyrazol-4-yl}-1,2-dihydropyrimidin-2-one] | 40000 nM
3 | Cc1nc(-n2ncc(C(=O)N3c4ccccc4C[C@@H]3C)c2C)[nH]c(=O)c1C (single isomer, unassigned) [Q-0457] | 100 nM
4 | Cc1cc(=O)[nH]c(-n2nc(C)c(CCC(=O)N3CCCCC3C)c2C)n1 (stereo not shown) [Q-0002] | 30 nM
5 | COc1ccccc1NC(=O)c1cnn(-c2nc(C)cc(=O)[nH]2)c1C [Q-0004] | 70 nM
6 | Cc1cc(=O)[nH]c(-n2ncc(C(=O)NCCc3ccc(F)cc3)c2C)n1 [Q-0007] | 100 nM
7 | Cc1cc(=O)[nH]c(-c2cnn(CCC(=O)N3CCCC3)c2)n1 [Q-0283, 6-methyl-2-{1-[3-oxo-3-(pyrrolidin-1-yl)propyl]-1H-pyrazol-4-yl}-3,4-dihydropyrimidin-4-one] | 1500 nM
8 | Cc1cc(=O)[nH]c(-c2c(C)nn(CCC(=O)N3CCc4ccccc4C3)c2C)n1 [Q-0284] | 2900 nM
9 | Cc1cc(-c2c(C)nn(CCC(=O)N3CCc4ccccc4C3)c2C)[nH]c(=O)n1 [Q-0285, 4-{3,5-dimethyl-1-[3-oxo-3-(1,2,3,4-tetrahydroisoquinolin-2-yl)propyl]-1H-pyrazol-4-yl}-6-methyl-1,2-dihydropyrimidin-2-one] | 40000 nM
10 | Cc1cc(=O)[nH]c(-n2ncc(C(=O)N3CCc4ccc(C#N)cc4C3)c2C)n1 [Q-0286] | 10 nM
11 | Cc1cc(=O)[nH]c(-n2ncc(C(=O)O)c2C)n1 [Q-0290] | 2000 nM
12 | Cc1cc(=O)[nH]c(-n2nc(C)c(CC(=O)N3CCCC3)c2C)n1 [Q-0301] | 200 nM
13 | Cc1cc(=O)[nH]c(-c2c(C)nn(CCC(=O)N3CCCC3)c2C)n1 [Q-0306] | 25000 nM
14 | CNC(=O)c1cnn(-c2nc(C)cc(=O)[nH]2)c1C [Q-0316] | 300 nM
15 | Cc1c(C(=O)N2CCOCC2)cnn1-c1nc2ccccc2c(=O)[nH]1 [Q-0320] | 1300 nM
16 | Cc1c(C(=O)NC2CCCC2)cnn1-c1nc2ccccc2c(=O)[nH]1 [Q-0321] | 900 nM
17 | Cc1cc(=O)[nH]c(-n2ncc(C(=O)N3CCC4(CCN(C)C4)C3)c2C)n1 (stereo not shown) [Q-0322] | 200 nM
18 | Cc1c(C(=O)N2CCc3ccccc3C2)cnn1-c1nc2cc(Cl)sc2c(=O)[nH]1 [Q-0394] | 1500 nM
19 | Cc1cc2nc(-n3ncc(C(=O)N4CCc5ccccc5C4)c3C)[nH]c(=O)c2s1 [Q-0407] | 1700 nM
20 | Cc1cc2c(=O)[nH]c(-n3ncc(C(=O)N4CCC(C(F)(F)F)CC4)c3C)nc2s1 [Q-0413] | 2200 nM
21 | CCC1Cc2ccccc2N1C(=O)c1cnn(-c2nc(C)cc(=O)[nH]2)c1C (stereo not shown) [Q-0420] | 7 nM
22 | Cc1nc(-n2ncc(C(=O)N3CCC(C(F)(F)F)CC3)c2C)cc(=O)[nH]1 [Q-0436] | 4600 nM
23 | Cc1nc(-n2ccc(C(=O)N3CCC(C(F)(F)F)CC3)n2)cc(=O)[nH]1 [Q-0437, 2-methyl-6-{3-[4-(trifluoromethyl)piperidine-1-carbonyl]-1H-pyrazol-1-yl}-3,4-dihydropyrimidin-4-one] | 5000 nM
24 | Cc1c(C(=O)N2CCC(C(F)(F)F)CC2)cnn1-c1nc2ccnn2c(=O)[nH]1 [Q-0447] | 400 nM

Row | SMILES | IC50
25 | Cc1c(C(=O)N2CCC(C(F)(F)F)CC2)cnn1-c1nc2nc[nH]c2c(=O)[nH]1 [Q-0448] | 1500 nM
26 | O=C(c1cnn(-c2cc3nccn3c(=O)[nH]2)c1)N1CCC(C(F)(F)F)CC1 [Q-0452] | 800 nM
27 | Cc1cc(-n2ncc(C(=O)N3CCC(C(F)(F)F)CC3)c2C)[nH]c(=O)n1 [Q-0454] | 300 nM
28 | Cc1cc(=O)n(C)c(-n2ncc(C(=O)N3CCc4ccccc4C3)c2C)n1 [Q-0455] | 16000 nM
29 | Cc1c(C(N2CCC(C(F)(F)F)CC2)C(F)(F)F)cnn1-c1nc2c(c(=O)[nH]1)CCC2 (stereo not shown) [Q-0503, 2-(5-methyl-4-{2,2,2-trifluoro-1-[4-(trifluoromethyl)piperidin-1-yl]ethyl}-1H-pyrazol-1-yl)-3H,4H,5H,6H,7H-cyclopenta[d]pyrimidin-4-one] | 4000 nM
30 | O=c1[nH]c(-c2cc(Br)ccn2)nc2ccsc12 [Q-0540] | 300 nM
31 | Cc1c(C(=O)O)cnn1-c1nc2ccsc2c(=O)[nH]1 [Q-0541] | 200 nM
32 | Cc1c(C(=O)O)cnn1-c1nc2sccc2c(=O)[nH]1 [Q-0542] | 100 nM
33 | O=C(O)c1cnn(-c2nc3c(c(=O)[nH]2)CCC3)c1C1CC1 [Q-0544] | 30 nM
34 | Cc1c(C(=O)N2CCC(c3nc(C(N)=O)cs3)CC2)cnn1-c1nn2cccc2c(=O)[nH]1 [Q-1090] | 1 nM
35 | Cc1c(C(=O)N2CCN(c3nnc(-c4cccnc4)o3)CC2)cnn1-c1nn2cccc2c(=O)[nH]1 [Q-1150] | 1 nM
36 | Cc1c(C(=O)N2CCNCC2)cnn1-c1nn2cccc2c(=O)[nH]1 [Q-1251] | 50 nM
37 | Cc1c(C(=O)N2CCN(CC(F)(F)F)CC2)cnn1-c1nc2c(ccn2C)c(=O)[nH]1 [Q-1266] | 200 nM
38 | CCn1ccc2c(=O)[nH]c(-n3ncc(C(=O)N4CCN(CC(F)(F)F)CC4)c3C)nc21 [Q-1292] | 5000 nM
39 | Cc1c(C(=O)N2CC3(C2)CC(F)(F)C3)cnn1-c1nc2[nH]ncc2c(=O)[nH]1 [Q-1295] | 2400 nM
40 | Cc1c(C(=O)N2CCN(CC(F)(F)F)CC2)cnn1-c1nc2[nH]ncc2c(=O)[nH]1 [Q-1296] | 600 nM
41 | Cc1c(C(=O)N2CC3(C2)CC(F)(F)C3)cnn1-c1nc2c(ccn2C)c(=O)[nH]1 [Q-1306] | 500 nM
42 | CCn1ccc2c(=O)[nH]c(-n3ncc(C(=O)N4CC(N5CCC(F)(F)C5)C4)c3C)nc21 [Q-1311] | 5000 nM
43 | CCn1ccc2c(=O)[nH]c(-n3ncc(C(=O)N4CC5(C4)CC(F)(F)C5)c3C)nc21 [Q-1313] | 5000 nM
44 | Cc1c(C(=O)N2CCC2c2ccnc(F)c2)cnn1-c1nn2cccc2c(=O)[nH]1 (stereo not shown) [Q-1320] | 20 nM
45 | Cc1c(C(=O)N2CC(N3CCC(F)(F)C3)C2)cnn1-c1nc2c(ccn2C)c(=O)[nH]1 [Q-1322] | 400 nM
46 | CCn1ccc2c(=O)[nH]c(-n3ncc(C(=O)N4CC5CC(C4)N5CC(F)(F)F)c3C)nc21 [Q-1341] | 5000 nM
47 | Cc1c(C(=O)N2CC(N3CCC(F)(F)C3)C2)cnn1-c1nc2c(c(=O)[nH]1)COC2 [Q-1343] | 70 nM
48 | Cc1c(C(=O)N2CC(N3CCC(F)(F)C3)C2)cnn1-c1nc2[nH]ncc2c(=O)[nH]1 [Q-1345] | 1400 nM

Row | SMILES | IC50
49 | Cc1c(C(=O)N2CC3(C2)CC(F)(F)C3)cnn1-c1nc2c(c(=O)[nH]1)COC2 [Q-1346] | 50 nM
50 | Cc1c(C(=O)N2CC3CC(C2)N3CC(F)(F)F)cnn1-c1nc2c(ccn2C)c(=O)[nH]1 [Q-1365] | 1000 nM
51 | Cc1c(C(=O)N2CC3CC(C2)N3CC(F)(F)F)cnn1-c1nc2c(c(=O)[nH]1)COC2 [Q-1483] | 30 nM
52 | Cc1c(C(=O)N2CC3CC(C2)N3CC(F)(F)F)cnn1-c1nc2[nH]ncc2c(=O)[nH]1 [Q-1560] | 800 nM
53 | Cc1c(C(=O)N2CCN(CC(F)(F)F)CC2)cnn1-c1nc2c(c(=O)[nH]1)CC(C)(C)C2 [Q-1563] | 5000 nM
54 | Cc1c(C(=O)N2CC(N3CCC(F)(F)C3)C2)cnn1-c1nc2c(c(=O)[nH]1)CC(C)(C)C2 [Q-1564, 2-(4-(3-(3,3-difluoropyrrolidin-1-yl)azetidine-1-carbonyl)-5-methyl-1H-pyrazol-1-yl)-6,6-dimethyl-6,7-dihydro-3H-cyclopenta[d]pyrimidin-4(5H)-one] | 5000 nM
55 | Cc1c(C(=O)N2CC3(C2)CC(F)(F)C3)cnn1-c1nc2c(c(=O)[nH]1)CC(C)(C)C2 [Q-1565] | 5000 nM
56 | Cc1c(C(=O)O)cnn1-c1nc2c(c(=O)[nH]1)CC(C)(C)C2 [Q-1597] | 5000 nM
57 | COC(=O)c1cnn(-c2nc3c(c(=O)[nH]2)CC(C)(C)C3)c1C [Q-1641] | 5000 nM
58 | Cc1c(C(=O)N2CCN(S(=O)(=O)c3ccc(OC(F)(F)F)cc3)CC2)cnn1-c1nn2cccc2c(=O)[nH]1 [Q-1798, 2-(5-methyl-4-(4-(4-(trifluoromethoxy)phenylsulfonyl)piperazine-1-carbonyl)-1H-pyrazol-1-yl)pyrrolo[1,2-f][1,2,4]triazin-4(3H)-one] | 2 nM
59 | Cc1c(C(=O)N2CCN(S(=O)(=O)c3ccc(C(C)(C)C)cc3)CC2)cnn1-c1nn2cccc2c(=O)[nH]1 [Q-1800] | 2 nM
60 | Cc1c(C(=O)N2CCN(S(=O)(=O)c3ccc(F)c(Cl)c3)CC2)cnn1-c1nn2cccc2c(=O)[nH]1 [Q-1801] | 2 nM
61 | COc1ccc(S(=O)(=O)N2CCN(C(=O)c3cnn(-c4nn5cccc5c(=O)[nH]4)c3C)CC2)cc1 [Q-1804] | 2 nM
62 | Cc1c(C(=O)N2CCN(S(=O)(=O)c3cc(Cl)c(Cl)s3)CC2)cnn1-c1nn2cccc2c(=O)[nH]1 [Q-1814] | 2 nM
63 | Cc1c(C(=O)N2CCN(S(=O)(=O)c3cccc4c(N(C)C)cccc34)CC2)cnn1-c1nn2cccc2c(=O)[nH]1 [Q-1815] | 2 nM
64 | Cc1c(C(=O)N2CCN(S(=O)(=O)c3cc(Cl)ccc3Cl)CC2)cnn1-c1nn2cccc2c(=O)[nH]1 [Q-1825] | 2 nM
65 | Cc1c(C(=O)N2CCN(S(=O)(=O)c3cccc(C(F)(F)F)c3)CC2)cnn1-c1nn2cccc2c(=O)[nH]1 [Q-1826] | 2 nM
66 | CC(=O)Nc1nc(C)c(S(=O)(=O)N2CCN(C(=O)c3cnn(-c4nn5cccc5c(=O)[nH]4)c3C)CC2)s1 [Q-1827] | 1 nM
67 | Cc1c(C(=O)N2CCN(S(=O)(=O)c3ccc4c(c3)OCO4)CC2)cnn1-c1nn2cccc2c(=O)[nH]1 [Q-1829] | 2 nM
68 | Cc1c(C(=O)N2CCN(S(=O)(=O)c3ccc(Cl)c(Cl)c3)CC2)cnn1-c1nn2cccc2c(=O)[nH]1 [Q-1830] | 2 nM
69 | Cc1c(C(=O)N2CCN(S(=O)(=O)c3ccc4ccccc4c3)CC2)cnn1-c1nn2cccc2c(=O)[nH]1 [Q-1831] | 3 nM
70 | Cc1c(C(=O)N2CCN(S(=O)(=O)c3cnn(C)c3)CC2)cnn1-c1nn2cccc2c(=O)[nH]1 [Q-1832] | 3 nM
